Results reported in US20250275993A1, “GLYCOSYLATION INHIBITORS AS THERAPEUTICS FOR STROKE” (The Regents of the University of California, priority 2022, published 2025).

Experiments:
JNK/c-jun = experiment: Western blot of JNK pathway activation in BCECs; type: cell-based, bovine
Experimental: (§1) Cells were allowed to reach-80% confluency in 12-well plates. […] At various time points, plates were taken out of the incubator and kept on ice. Cell monolayers were first washed once with ice-cold PBS before lysis with 250 μI of Pierce RIPA buffer (ThermoFisher Scientific, Rockford, IL) or use 50 mM Tris-HCl (pH 7.6), 150 mM NaCl, 10% Glycerol, 1% NP-40 containing protease/Phosphatase inhibitor cocktail (100×) (Cell signaling, #5872). Lysates were collected and mixed with 4× Bolt LDS Sample Buffer (Novex, Carlsbad, CA) in the presence of Halt protease inhibitors and phosphatase inhibitor cocktail (ThermoFisher scientific, #NP0007). The samples were subjected to SDS-PAGE (Bolt 4-12% Bis-Tris Plus, Invitrogen) using Bolt MES SDS running buffer or NuPAGE 3-8% Tris-Acetate gel using Tris-Acetate SDS running buffer (Novex). HUVECs (passage 6-8) were plated in EBM-2 basal medium (Lonza) with 0.2% FBS. Following overnight culture, cells were serum-starved in EBM-2 medium for 4 hrs prior to treatment with 50 ng/ml of VEGF165 or vehicle controls for various lengths. Equal amounts of protein lysates were analyzed by SDS-PAGE and blotted with the indicated antibodies. Proteins were transferred using Tris-Glycine buffer with 20% Methanol (Proteonomics grade) (Apex BioResearch Products). Membranes were first incubated with 5% milk in TBST, pH 7.6 (TEKnova, Hollister, CA), followed by blotting with primary and secondary antibodies. ECL anti-rabbit IgG, horseradish peroxidase linked whole antibody from donkey or sheep anti-mouse were obtained from GE Healthcare (UK limited). SuperSignal West Dura Extended Duration substrate was from ThermoFisher Scientific. In some cases, the same PVDF membranes were stripped by 8-min incubation in the Restore Plus Western Blot Stripping Buffer (ThermoFisher Scientific) to show total specific protein expression, followed by second stripping for (3-actin expression.

Bip, CHOP, ATF-6 = experiment: Western blot of UPR responsive proteins in BCECs; type: cell-based, bovine
VEGFR2 = VEGFR2 western blot in BCECs (molecular mass, phosphorylation, PNGase F); type: cell-based, bovine
Experimental: Glycerol-free PNGase F was obtained from New England Biolabs (Ipswich, MA). Briefly, BCECs were lysed with NP-40 containing proteinase inhibitors (Thermo Scientific, Waltham, MA). Lysates were cleared at 4° C. at 5000 g for 25 mins. Total protein content was measured using Pierce BCA protein assay kit (Thermo Scientific). 20 mg of protein was mixed with 10× denaturing buffer and H2O to a total volume of […]. Glycoproteins were denatured at 100° C. for 10 mins, followed by adding Glycobuffer and PNGase F. The reaction was carried out at 37° C. for 2 hr.
as §1, with “Cell monolayers were first washed once with ice-cold PBS before lysis with 250 μI of Pierce RIPA buffer (ThermoFisher Scientific, Rockford, IL) or use 50 mM Tris-HCl (pH 7.6), 150 mM NaCl, 10% Glycerol, 1% NP-40 containing protease/Phosphatase inhibitor cocktail (100×) (Cell signaling, #5872).” left out, “The samples were subjected to SDS-PAGE (Bolt 4-12% Bis-Tris Plus, Invitrogen) using Bolt MES SDS running buffer or NuPAGE 3-8% Tris-Acetate gel using Tris-Acetate SDS running buffer (Novex).” left out

[1] = system: ERK, AKT, mTOR, CREB, ACC and eNOS; experiment: Western blot of signal transduction pathways in BCECs; type: cell-based, bovine
Experimental: as §1, with “Cell monolayers were first washed once with ice-cold PBS before lysis with 250 μI of Pierce RIPA buffer (ThermoFisher Scientific, Rockford, IL) or use 50 mM Tris-HCl (pH 7.6), 150 mM NaCl, 10% Glycerol, 1% NP-40 containing protease/Phosphatase inhibitor cocktail (100×) (Cell signaling, #5872).” left out, “The samples were subjected to SDS-PAGE (Bolt 4-12% Bis-Tris Plus, Invitrogen) using Bolt MES SDS running buffer or NuPAGE 3-8% Tris-Acetate gel using Tris-Acetate SDS running buffer (Novex).” left out

ARPE-19 RPE cells = experiment: Human RPE proliferation assay; type: cell-based
Experimental: Proliferation assays with fibroblasts were done in low-glucose DMEM containing 1% FBS, with or without 10 ng/ml bFGF, or 100 ng/ml human EGF and the assay was ended at day 3. ARPE-19 cells were gently lifted with 0.025% trypsin and plated in RtEGM media (Clonetics) containing 2% FBS, L-glutamine, human bFGF and GA-1000. Once cells were attached to plates, serum-free RtEGM media was used to maintain the cultures. For proliferation assays, 1500 human RPE cells were plated into 96-well plates in low-glucose DMEM containing 1% FBS. A673, U87MG, Calu6 and AML12 cells were grown until confluent and were then harvested and re-suspended in appropriate assay media. For proliferation assays, cells were plated at the density of 1000-2000 cells/well in low-glucose DMEM containing 5% FBS or otherwise stated. Bovine pituitary cells (pituitary folliculostellate cells) were isolated as previously described. For proliferation assays with human epidermal keratinocytes, human DMVECs and human dermal fibroblast cells, 1000 cells/well were plated in low-glucose DMEM containing 1% FBS with or without various growth factors. The assay was ended at day 3 for bovine pituitary cells and at day 4 for all the other cell types. […] Four days later, tumor cell growth was measured by the MTS assay (Promega, Madison, WI), a colorimetric assay that measures metabolic activity of viable cells. […]

## O=C1N[C@@H]2[C@@H](O)[C@@H](O)[C@H](O)[C@@H](CO)N2C1=O [Kif, Kifunensine, reference compound]
JNK/c-jun; 40 μM, BCECs, FIG. 7E
  activation of the JNK pathway by glycosylation inhibitors: able to activate the JNK pathway
Bip, CHOP, ATF-6; media without growth factors for 24 hours
  Bip expression by glycosylation inhibitors: dose-dependent induction of Bip expression
VEGFR2; 24 hours
  VEGFR2 molecular mass on SDS-PAGE after glycosylation inhibitors: reduction in VEGFR2 molecular mass
[1]; 40 μM, FIG. 7E
  activation of ERK and AKT in BCECs by glycosylation inhibitors: significantly activate ERK and AKT

## N[C@H](C=O)[C@@H](O)[C@H](O)[C@H](O)CO [ManN, 2-Amino-2-deoxy-D-mannose]
JNK/c-jun; BCECs switched to media without growth factors, 4 μM-4 mM, four hours
  activation of JNK and downstream c-Jun: significantly activated by ManN in a dose-dependent manner
Bip, CHOP, ATF-6; FIG. 5B
  synergy between ManN and VEGF in promoting Bip or CHOP expression: No synergy
Bip, CHOP, ATF-6; ManN, dose-dependent
  time of CHOP induction: about 6 hours
Bip, CHOP, ATF-6; growing cells deprived of growth factor, evident at 24 and 48 hours
  Bip expression: significantly turn on Bip expression in a concentration-dependent manner
ARPE-19 RPE cells; 5 mM level of ManN
  sensitivity of human RPE cells to ManN toxicity: least sensitive ones
ARPE-19 RPE cells; alone or in combination with growth factors
  proliferation of human RPEs: no increases in proliferation
VEGFR2; BCECs and BRECs
  concentration from which VEGFR2 apparent molecular mass shifts: ≥ 40 µM
VEGFR2; BCECs, FIG. 4E
  duration of ManN effects on protein mass in the absence of exogenous ManN: at least 8 hours
VEGFR2; ManN in BCEC
  protein mass of av integrin, Neuropilin-1, VE-cadherin and bFGFR1: affected as well
VEGFR2; ManN pre-treated cells
  VEGFR2 phosphorylation in response to VEGF: decreased
VEGFR2; after 24 hours
  reversibility of VEGFR2 molecular mass change after ManN removal: completely reverse
VEGFR2; after ManN addition in BCECs
  ligand-independent VEGFR2 activation: No ligand-independent VEGFR2 activation
VEGFR2; experiments with axitinib
  dependence of ManN effects on VEGFR2 signaling: not dependent on VEGFR2 signaling
VEGFR2; hexosamines and derivatives at 40 μM, 24 hours
  specificity of VEGFR2 molecular mass shift: unique to ManN among hexosamines and their derivatives
VEGFR2; μM concentrations of ManN
  extent of loss of VEGFR2 glycosylation (PNGase F treatment): not all the glycosylation on VEGFR2 was abolished
[1]; 40 μM ManN, within 10-30 minutes
  activation of eNOS and ACC: significantly activated
[1]; 40 μM, BCECs
  activation of ERK, AKT, mTOR and CREB: activated
  time to stimulation of ERK, AKT and CREB after adding ManN: 10 to 30 min
[1]; both ManN and VEGF present
  activation of ERK, AKT and CREB with ManN plus VEGF vs either alone: enhancement in activation
